Test results: publication PMC8174729, “Inhibition of CMP-sialic acid transport by endogenous 5-methyl CMP” (PLoS ONE, 2021)

Tests used:
[1] = target: T1, CMP-sialic acid transporter (CST) (Mus musculus, UniProt Q61420); experiment: X-ray crystal structure at […] Å; FSEC thermal shift binding assay with Kd (also inhibits [3H]CMP-Sia uptake in Sf9 cells, IC50 […]); set-up: gene Slc35a1; Kd: full-length, GFP-tagged mouse CST; crystal: CSTΔC construct, which lacks the last 15 residues (322–336)
T1 sequence (Q61420 1-336): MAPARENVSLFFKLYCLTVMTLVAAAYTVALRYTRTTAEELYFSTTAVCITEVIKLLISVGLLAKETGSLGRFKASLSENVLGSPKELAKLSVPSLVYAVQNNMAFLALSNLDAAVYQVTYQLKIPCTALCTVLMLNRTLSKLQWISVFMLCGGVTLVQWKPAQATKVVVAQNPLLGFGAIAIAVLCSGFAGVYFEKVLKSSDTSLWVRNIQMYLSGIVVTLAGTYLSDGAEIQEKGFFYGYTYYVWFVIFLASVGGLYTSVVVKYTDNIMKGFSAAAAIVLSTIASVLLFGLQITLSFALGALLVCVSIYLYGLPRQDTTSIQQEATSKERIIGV

[2] = target: T1, CMP-sialic acid transporter (CST); experiment: FSEC thermal shift binding assay with Kd (also inhibits [3H]CMP-Sia uptake in Sf9 cells, IC50 […]); set-up: gene Slc35a1; Full-length, GFP-tagged mouse CST

Kd [1] [µM]	Kd [2] [µM]	SMILES
1	–	Cc1cn([C@@H]2O[C@H](COP(=O)(O)O)[C@@H](O)[C@H]2O)c(=O)nc1N [m5CMP, 5-methyl CMP]
–	16.1	Nc1ccn([C@@H]2O[C@H](COP(=O)(O)O)[C@@H](O)[C@H]2O)c(=O)n1 [CMP]
